Laboratory results published in ChEMBL document CHEMBL3879901, “Substituted isoquinolin-1(2H)-ones, and methods of use thereof” (2012).
Active and inactive are the calls of the source. The calls are words filed in the database; no cut-off is given here.

Tests used:
[1] = biological target: PI3-kinase p110-alpha/p85-alpha (Homo sapiens, UniProt P42336); assay: Inhibition of N-terminal His6-tagged recombinant full-length human p110alpha/untagged recombinant full length human p85alpha expressed in baculovirus infected Sf21 cells using phosphatidylinositol as substrate in presence of gamma-32P-ATP after 5 mins by thin layer chromatographic method
Sequence of PI3-kinase p110-alpha/p85-alpha (P27986 whole entry): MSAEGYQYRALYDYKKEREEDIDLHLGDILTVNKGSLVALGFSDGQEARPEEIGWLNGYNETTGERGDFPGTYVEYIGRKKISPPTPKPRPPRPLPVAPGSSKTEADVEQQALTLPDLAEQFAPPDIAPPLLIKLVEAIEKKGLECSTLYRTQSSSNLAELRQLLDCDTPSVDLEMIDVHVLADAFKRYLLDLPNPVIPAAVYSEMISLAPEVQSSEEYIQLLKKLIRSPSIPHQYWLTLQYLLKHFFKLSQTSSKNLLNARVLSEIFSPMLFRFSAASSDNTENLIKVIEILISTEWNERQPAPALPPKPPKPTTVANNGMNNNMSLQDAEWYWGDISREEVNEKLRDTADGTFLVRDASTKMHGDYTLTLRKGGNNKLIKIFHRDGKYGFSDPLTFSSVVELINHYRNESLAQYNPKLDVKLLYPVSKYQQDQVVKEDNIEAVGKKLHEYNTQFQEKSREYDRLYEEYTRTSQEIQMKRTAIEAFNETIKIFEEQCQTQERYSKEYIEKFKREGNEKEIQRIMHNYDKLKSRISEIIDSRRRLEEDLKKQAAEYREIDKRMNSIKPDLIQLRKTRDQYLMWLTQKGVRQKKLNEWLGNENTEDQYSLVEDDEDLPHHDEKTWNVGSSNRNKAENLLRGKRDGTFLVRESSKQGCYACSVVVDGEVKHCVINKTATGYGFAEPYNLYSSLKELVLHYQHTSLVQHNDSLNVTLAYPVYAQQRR
Sequence of PI3-kinase p110-alpha/p85-alpha (P42336 whole entry): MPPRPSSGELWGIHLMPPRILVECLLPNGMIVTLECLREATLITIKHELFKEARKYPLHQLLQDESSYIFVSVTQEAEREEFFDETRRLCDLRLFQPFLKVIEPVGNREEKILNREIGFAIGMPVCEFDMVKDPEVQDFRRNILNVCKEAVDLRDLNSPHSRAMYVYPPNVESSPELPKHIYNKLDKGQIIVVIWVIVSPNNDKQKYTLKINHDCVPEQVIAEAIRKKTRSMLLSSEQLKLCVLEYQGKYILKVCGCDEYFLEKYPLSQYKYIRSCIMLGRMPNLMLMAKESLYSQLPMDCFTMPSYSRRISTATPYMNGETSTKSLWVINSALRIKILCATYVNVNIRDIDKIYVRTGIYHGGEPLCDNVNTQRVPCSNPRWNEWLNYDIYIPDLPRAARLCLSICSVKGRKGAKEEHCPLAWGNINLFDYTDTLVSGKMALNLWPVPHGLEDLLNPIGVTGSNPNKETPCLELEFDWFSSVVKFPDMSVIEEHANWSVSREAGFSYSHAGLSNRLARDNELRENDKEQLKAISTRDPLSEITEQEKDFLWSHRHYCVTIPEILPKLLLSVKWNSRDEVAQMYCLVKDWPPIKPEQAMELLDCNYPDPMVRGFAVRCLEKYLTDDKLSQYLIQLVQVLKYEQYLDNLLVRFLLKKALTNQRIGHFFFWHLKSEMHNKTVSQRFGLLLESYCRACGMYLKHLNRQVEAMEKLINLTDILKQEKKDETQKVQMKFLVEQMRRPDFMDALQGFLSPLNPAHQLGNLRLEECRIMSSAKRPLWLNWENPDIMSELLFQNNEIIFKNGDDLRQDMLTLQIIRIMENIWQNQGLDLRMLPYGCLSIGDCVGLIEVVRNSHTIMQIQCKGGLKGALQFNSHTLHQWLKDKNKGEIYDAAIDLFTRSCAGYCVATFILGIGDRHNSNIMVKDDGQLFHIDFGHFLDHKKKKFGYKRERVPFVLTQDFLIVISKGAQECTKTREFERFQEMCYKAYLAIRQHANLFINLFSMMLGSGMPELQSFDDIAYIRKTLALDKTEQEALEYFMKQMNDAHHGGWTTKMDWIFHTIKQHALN

[2] = biological target: PI3K p110 beta/p85 alpha (Homo sapiens, UniProt P42338); assay: Inhibition of N-terminal His6-tagged recombinant full-length human p110beta/untagged recombinant full length p85alpha expressed in baculovirus infected Sf21 cells using phosphatidylinositol as substrate in presence of gamma-32P-ATP after 5 mins by thin layer chromatographic method
Sequence of PI3K p110 beta/p85 alpha (P27986 whole entry): as the sequence (P27986 whole entry) above
Sequence of PI3K p110 beta/p85 alpha (P42338 whole entry): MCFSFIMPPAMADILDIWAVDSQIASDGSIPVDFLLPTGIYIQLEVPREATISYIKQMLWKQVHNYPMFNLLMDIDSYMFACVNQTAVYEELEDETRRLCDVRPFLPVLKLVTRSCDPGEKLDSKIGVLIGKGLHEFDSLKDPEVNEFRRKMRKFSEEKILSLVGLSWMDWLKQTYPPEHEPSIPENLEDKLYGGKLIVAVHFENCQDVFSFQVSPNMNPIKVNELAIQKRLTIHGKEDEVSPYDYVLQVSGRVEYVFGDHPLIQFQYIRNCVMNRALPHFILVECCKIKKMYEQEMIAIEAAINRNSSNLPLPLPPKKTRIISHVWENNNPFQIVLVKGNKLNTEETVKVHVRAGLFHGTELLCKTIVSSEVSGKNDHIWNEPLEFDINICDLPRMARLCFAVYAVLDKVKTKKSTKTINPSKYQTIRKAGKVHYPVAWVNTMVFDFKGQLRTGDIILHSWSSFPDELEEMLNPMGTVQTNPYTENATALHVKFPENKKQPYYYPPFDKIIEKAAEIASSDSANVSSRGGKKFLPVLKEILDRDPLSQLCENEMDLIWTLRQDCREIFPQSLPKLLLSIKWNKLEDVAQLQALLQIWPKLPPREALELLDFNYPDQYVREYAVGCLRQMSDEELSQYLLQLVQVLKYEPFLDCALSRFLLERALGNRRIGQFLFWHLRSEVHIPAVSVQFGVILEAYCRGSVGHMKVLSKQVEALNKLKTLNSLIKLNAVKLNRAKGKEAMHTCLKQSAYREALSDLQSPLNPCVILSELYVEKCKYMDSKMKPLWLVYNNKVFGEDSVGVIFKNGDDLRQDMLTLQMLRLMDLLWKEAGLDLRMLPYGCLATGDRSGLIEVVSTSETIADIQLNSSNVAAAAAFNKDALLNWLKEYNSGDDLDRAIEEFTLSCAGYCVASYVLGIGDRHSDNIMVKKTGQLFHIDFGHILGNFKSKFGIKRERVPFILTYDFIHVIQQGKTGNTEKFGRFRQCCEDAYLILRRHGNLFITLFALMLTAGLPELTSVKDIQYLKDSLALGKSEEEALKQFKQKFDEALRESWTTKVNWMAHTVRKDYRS

[3] = system: Rattus norvegicus; assay: Antiarthritic activity in type 2 collagen-induced Lewis rat arthritis model assessed as reduction in ankle diameter at 10 to 60 mg/kg, po administered every 12 hrs for 16 days measured on day 9 of compound dosing to day 17 of post last dose relative to vehicle-treated control; format: functional, organism-based
[4] = system: Rattus norvegicus; assay: Antiarthritic activity in type 2 collagen-induced Lewis rat arthritis model assessed as reduction in cartilage damage in ankle at 60 mg/kg, po administered every 12 hrs for 16 days measured on day 17 of post last dose by toluidine blue staining-based assay; format: functional, organism-based
[5] = system: Rattus norvegicus; assay: Antiarthritic activity in type 2 collagen-induced po dosed Lewis rat arthritis model assessed as reduction in knee inflammation administered every 12 hrs for 16 days measured on day 17 of post last dose by toluidine blue staining-based assay; format: functional, organism-based
[6] = system: Rattus norvegicus; assay: Antiarthritic activity in type 2 collagen-induced Lewis rat arthritis model assessed as reduction in serum anti-type 2 collagen levels at 30 mg/kg, po administered every 12 hrs for 16 days measured on day 17 of post last dose by ELISA relative to control; format: functional; parameters: scale not given: the % may be the effect or the level left
[7] = system: Rattus norvegicus; assay: Antiarthritic activity in complete freund's adjuvant-induced intrathecally dosed Lewis rat arthritis model assessed as reduction in paw volume administered on day 8 to 20 post arthritis induction measured every second day of compound dosing by water displacement plethysmometry; format: functional, organism-based

With `CC(=O)Nc1nc2ccc(-c3nn(Cc4cc5cccc(C)c5c(=O)n4-c4ccccc4C)c4ncnc(N)c34)cc2s1` the IC50 [1] was 1 to 10 µM, the IC50 [2] was under 10 µM and the Activity [3] was “Active”. The Activity [4] was “Active”, the Activity [5] was “Dose-dependent effect” and the Activity [6] was 87%. The Activity [7] was “Dose-dependent effect”.
